Assay results published in US20080103048A1, “Methods for the production of granular composite pesticidal compositions and the compositions produced thereby” (priority 2006, published 2008).

Assay: Solubility of non-cyano containing pyrethroids in non-polar solvents
Assay type: physicochemical
Protocol: Specifically, samples were prepared in 4 ounce glass bottles by combining the non-cyano containing pyrethroids Bifenthrin Technical (supplied by FMC Corporation) and Permethrin Technical sold by Gharda USA, Inc with various non-polar solvents at 10%, 25% and 50% rates by mass (total mass of each sample being 40 grams) so that the 10% formulation contained 4 g of the pyrethroid and 36 g solvent; the 25% formulation contained 10 g of the pyrethroid and 30 g solvent; and the 50% formulation contained 20 g of the pyrethroid and 20 g solvent. Each of the resulting solutions was stirred vigorously in the bottles until a clear solution was obtained. The initial temperatures of the solutions in each of bottles was recorded before the bottles were heated on a laboratory hot plate Each of the solutions was stirred constantly while the solution was being heated on the hot plate and the solutions were frequently observed for signs of any visible separation between the solvent and the solute. […] The final temperature of the solutions in each of the bottles was recorded and it was noted that the temperature required to achieve full miscibility of the pyrethroids in the solvents was up to about 80° C.
In the following Table III, each of the non-cyano containing pyrethroids that were tested and each of the non-polar solvents which were employed with such pyrethroids are listed as well as the initial temperature of the solution and the final temperature resulting in full miscibility of the components.

[1] = Canola Oil (Stepsol ROW-W), 10% pyrethroid by mass
[2] = Canola Oil (Stepsol ROW-W), 25% pyrethroid by mass
[3] = Canola Oil (Stepsol ROW-W), 50% pyrethroid by mass
[4] = Polybutene H-7, 10% pyrethroid by mass
[5] = Polybutene H-7, 25% pyrethroid by mass
[6] = Polybutene H-7, 50% pyrethroid by mass
[7] = Polybutene H-8, 10% pyrethroid by mass
[8] = Polybutene H-8, 25% pyrethroid by mass
[9] = Polybutene H-8, 50% pyrethroid by mass
[10] = Polybutene L-14, 10% pyrethroid by mass
[11] = Polybutene L-14, 25% pyrethroid by mass
[12] = Polybutene L-14, 50% pyrethroid by mass
[13] = Polybutene L-50, 10% pyrethroid by mass
[14] = Polybutene L-50, 25% pyrethroid by mass
[15] = Polybutene L-50, 50% pyrethroid by mass
[16] = Safflower Oil, 10% pyrethroid by mass
[17] = Safflower Oil, 25% pyrethroid by mass
[18] = Safflower Oil, 50% pyrethroid by mass

Structure (SMILES): CC1(C)C(C=C(Cl)Cl)C1C(=O)OCc1cccc(Oc2ccccc2)c1 (stereo not shown) [Permethrin Tech., permethrin]
- Final Temp. (resulting in full miscibility) [1]: 26 °C
- Final Temp. (resulting in full miscibility) [2]: 27 °C
- Final Temp. (resulting in full miscibility) [3]: 30 °C
- Final Temp. (resulting in full miscibility) [4]: 29 °C
- Final Temp. (resulting in full miscibility) [5]: 33 °C
- Final Temp. (resulting in full miscibility) [6]: 50 °C
- Final Temp. (resulting in full miscibility) [7]: 51 °C
- Final Temp. (resulting in full miscibility) [8]: 54 °C
- Final Temp. (resulting in full miscibility) [9]: 62 °C
- Final Temp. (resulting in full miscibility) [10]: 26 °C
- Final Temp. (resulting in full miscibility) [11]: 28 °C
- Final Temp. (resulting in full miscibility) [12]: 31 °C
- Final Temp. (resulting in full miscibility) [13]: 35 °C
- Final Temp. (resulting in full miscibility) [14]: 51 °C
- Final Temp. (resulting in full miscibility) [15]: 54 °C
- Final Temp. (resulting in full miscibility) [16]: 80 °C
- Final Temp. (resulting in full miscibility) [17]: 80 °C
- Final Temp. (resulting in full miscibility) [18]: 80 °C

Structure (SMILES): Cc1c(COC(=O)[C@H]2[C@@H](/C=C(/Cl)C(F)(F)F)C2(C)C)cccc1-c1ccccc1 [Bifenthrin Tech., bifenthrin]
- Final Temp. (resulting in full miscibility) [1]: 45 °C
- Final Temp. (resulting in full miscibility) [2]: 57 °C
- Final Temp. (resulting in full miscibility) [3]: 74 °C
- Final Temp. (resulting in full miscibility) [4]: 45 °C
- Final Temp. (resulting in full miscibility) [5]: 41 °C
- Final Temp. (resulting in full miscibility) [6]: 41 °C
- Final Temp. (resulting in full miscibility) [7]: 37 °C
- Final Temp. (resulting in full miscibility) [8]: 50 °C
- Final Temp. (resulting in full miscibility) [9]: 36 °C
- Final Temp. (resulting in full miscibility) [10]: 30 °C
- Final Temp. (resulting in full miscibility) [11]: 40 °C
- Final Temp. (resulting in full miscibility) [12]: 43 °C
- Final Temp. (resulting in full miscibility) [13]: 37 °C
- Final Temp. (resulting in full miscibility) [14]: 35 °C
- Final Temp. (resulting in full miscibility) [15]: 43 °C
- Final Temp. (resulting in full miscibility) [16]: 80 °C
- Final Temp. (resulting in full miscibility) [17]: 80 °C
- Final Temp. (resulting in full miscibility) [18]: 80 °C
- solubility and stability in polybutene L-14 (over a range of concentrations): soluble and stable
